Consider five cell lines from the supplement of paper PMC10307832.

Holding throughout (assay): relative viability (nuclei count vs DMSO), 5 days (fraction); higher = more cells survive
Compound in the assay “Carfilzomib + Luminespib”: CC(C)C[C@H](NC(=O)[C@H](CCc1ccccc1)NC(=O)CN1CCOCC1)C(=O)N[C@@H](Cc1ccccc1)C(=O)N[C@@H](CC(C)C)C(=O)[C@@]1(C)CO1 [Carfilzomib] + CCNC(=O)c1noc(-c2cc(C(C)C)c(O)cc2O)c1-c1ccc(CN2CCOCC2)cc1 [Luminespib] (partner 0.01 µM)
Summed up: (§1)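 Relative viability was taken as the ratio of nuclei in treated wells to nuclei in vehicle wells. Lung cancer cell lines in 1536-well plates received compounds by pin tool one day after seeding, either one drug alone or a fixed anchor-drug dose plus five library-drug doses (not always all listed) in √10 steps. Nuclei were counted on 4× images after 5 days of treatment, and values are medians of duplicate plates.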

Compound in the assay “Carfilzomib + AZD7762”: CC(C)C[C@H](NC(=O)[C@H](CCc1ccccc1)NC(=O)CN1CCOCC1)C(=O)N[C@@H](Cc1ccccc1)C(=O)N[C@@H](CC(C)C)C(=O)[C@@]1(C)CO1 [Carfilzomib] + NC(=O)Nc1cc(-c2cccc(F)c2)sc1C(=O)N[C@H]1CCCNC1 [AZD7762] (partner 0.2 µM)
The procedure, abridged:
as §1

Compound in the assay “Crizotinib + Navitoclax”: C[C@@H](Oc1cc(-c2cnn(C3CCNCC3)c2)cnc1N)c1c(Cl)ccc(F)c1Cl [Crizotinib] + CC1(C)CCC(c2ccc(Cl)cc2)=C(CN2CCN(c3ccc(C(=O)NS(=O)(=O)c4ccc(N[C@H](CCN5CCOCC5)CSc5ccccc5)c(S(=O)(=O)C(F)(F)F)c4)cc3)CC2)C1 [Navitoclax] (partner 0.5 µM)
Summed up: as §1

Compound in the assay “Crizotinib + Foretinib”: C[C@@H](Oc1cc(-c2cnn(C3CCNCC3)c2)cnc1N)c1c(Cl)ccc(F)c1Cl [Crizotinib] + COc1cc2c(Oc3ccc(NC(=O)C4(C(=O)Nc5ccc(F)cc5)CC4)cc3F)ccnc2cc1OCCCN1CCOCC1 [Foretinib] (partner 0.25 µM)
Summed up: as §1

With NCI-H1734, the relative viability came to 0.188 with Carfilzomib + Luminespib (first compound 0.001 µM); 0.177 with Carfilzomib + Luminespib (first compound 0.003162 µM); 0.235 with Carfilzomib + Luminespib (first compound 0.01 µM); 0.184 in the assay with Carfilzomib + Luminespib (first compound 0.03162 µM); 0.107 in the assay with Carfilzomib + Luminespib (first compound 0.1 µM); 0.549 with Carfilzomib + AZD7762 (first compound 0.001 µM). Further, the relative viability was determined as 0.633 with Carfilzomib + AZD7762 (first compound 0.003162 µM); 0.521 with Carfilzomib + AZD7762 (first compound 0.01 µM); 0.204 with Carfilzomib + AZD7762 (first compound 0.03162 µM); 0.114 with Carfilzomib + AZD7762 (first compound 0.1 µM); 0.888 with Crizotinib + Navitoclax (first compound 0.01 µM); 0.81 in the assay with Crizotinib + Navitoclax (first compound 0.03162 µM). Further, the relative viability was 0.844 with Crizotinib + Navitoclax (first compound 0.1 µM); 0.811 with Crizotinib + Foretinib (first compound 0.01 µM); 0.847 in the assay with Crizotinib + Foretinib (first compound 0.03162 µM); 0.753 with Crizotinib + Foretinib (first compound 0.1 µM); 0.805 with Crizotinib + Foretinib (first compound 1 µM).

As to ChaGo-K-1, the relative viability is 0.581 with Carfilzomib + Luminespib (first compound 0.001 µM); 0.747 with Carfilzomib + Luminespib (first compound 0.003162 µM); 0.587 with Carfilzomib + Luminespib (first compound 0.01 µM); 0.523 with Carfilzomib + Luminespib (first compound 0.03162 µM); 0.171 with Carfilzomib + Luminespib (first compound 0.1 µM); 0.813 with Carfilzomib + AZD7762 (first compound 0.001 µM). The relative viability with Carfilzomib + AZD7762 (first compound 0.003162 µM) was 0.898; with Carfilzomib + AZD7762 (first compound 0.01 µM), 0.855; in the assay with Carfilzomib + AZD7762 (first compound 0.03162 µM) it was 0.542; with Carfilzomib + AZD7762 (first compound 0.1 µM) it was 0.152; with Crizotinib + Navitoclax (first compound 0.01 µM), 0.965; with Crizotinib + Navitoclax (first compound 0.03162 µM), 0.922. For the same cell line, the relative viability with Crizotinib + Navitoclax (first compound 0.1 µM) was determined as 1.1; with Crizotinib + Navitoclax (first compound 1 µM), 0.854; with Crizotinib + Foretinib (first compound 0.01 µM), 0.838; in the assay with Crizotinib + Foretinib (first compound 0.1 µM), 0.939; with Crizotinib + Foretinib (first compound 1 µM), 0.939.

NCI-H2405: the relative viability with Carfilzomib + Luminespib (first compound 0.003162 µM) came to 0.873; with Carfilzomib + Luminespib (first compound 0.01 µM) it was 0.851; in the assay with Carfilzomib + Luminespib (first compound 0.03162 µM) it was 0.759; with Carfilzomib + Luminespib (first compound 0.1 µM), 0.32; in the assay with Carfilzomib + AZD7762 (first compound 0.001 µM), 0.717; with Carfilzomib + AZD7762 (first compound 0.003162 µM) it was 0.783. The relative viability was 0.932 with Carfilzomib + AZD7762 (first compound 0.01 µM); 0.689 with Carfilzomib + AZD7762 (first compound 0.03162 µM); 0.262 with Carfilzomib + AZD7762 (first compound 0.1 µM); 0.816 with Crizotinib + Navitoclax (first compound 0.01 µM); 0.815 in the assay with Crizotinib + Navitoclax (first compound 0.03162 µM); 0.79 with Crizotinib + Navitoclax (first compound 0.1 µM). The relative viability turned out to be 0.858 with Crizotinib + Navitoclax (first compound 0.3162 µM); 0.862 with Crizotinib + Navitoclax (first compound 1 µM); 1.02 with Crizotinib + Foretinib (first compound 0.01 µM); 1.06 with Crizotinib + Foretinib (first compound 0.03162 µM); 1.05 with Crizotinib + Foretinib (first compound 0.1 µM); 1.09 in the assay with Crizotinib + Foretinib (first compound 0.3162 µM). Besides, the relative viability with Crizotinib + Foretinib (first compound 1 µM) was found to be 1.06.

Turning to NCI-H727, the relative viability in the assay with Carfilzomib + Luminespib (first compound 0.001 µM) was 0.32; with Carfilzomib + Luminespib (first compound 0.003162 µM) it was 0.436; with Carfilzomib + Luminespib (first compound 0.01 µM), 0.294; with Carfilzomib + Luminespib (first compound 0.03162 µM), 0.498; in the assay with Carfilzomib + Luminespib (first compound 0.1 µM) it was 0.201; in the assay with Carfilzomib + AZD7762 (first compound 0.001 µM), 0.511. The relative viability in the assay with Carfilzomib + AZD7762 (first compound 0.003162 µM) came to 0.498; with Carfilzomib + AZD7762 (first compound 0.01 µM) it was 0.685; in the assay with Carfilzomib + AZD7762 (first compound 0.03162 µM) it was 0.608; in the assay with Carfilzomib + AZD7762 (first compound 0.1 µM), 0.242; in the assay with Crizotinib + Navitoclax (first compound 0.01 µM) it was 0.394; in the assay with Crizotinib + Navitoclax (first compound 0.03162 µM), 0.459. The relative viability was 0.505 with Crizotinib + Navitoclax (first compound 0.1 µM); 0.436 with Crizotinib + Navitoclax (first compound 0.3162 µM); 0.393 with Crizotinib + Navitoclax (first compound 1 µM); 1.24 in the assay with Crizotinib + Foretinib (first compound 0.03162 µM); 0.957 with Crizotinib + Foretinib (first compound 0.1 µM); 1.22 with Crizotinib + Foretinib (first compound 1 µM).

With A-427, the relative viability with Carfilzomib + Luminespib (first compound 0.001 µM) worked out at 0.837; in the assay with Carfilzomib + Luminespib (first compound 0.003162 µM), 1.18; with Carfilzomib + Luminespib (first compound 0.01 µM) it was 1.05; with Carfilzomib + Luminespib (first compound 0.03162 µM) it was 0.141; with Carfilzomib + Luminespib (first compound 0.1 µM) it was 0.112; with Carfilzomib + AZD7762 (first compound 0.001 µM) it was 0.725. Besides, the relative viability with Carfilzomib + AZD7762 (first compound 0.003162 µM) was determined as 0.82; with Carfilzomib + AZD7762 (first compound 0.01 µM), 0.696; in the assay with Carfilzomib + AZD7762 (first compound 0.03162 µM), 0.527; in the assay with Carfilzomib + AZD7762 (first compound 0.1 µM) it was 0.173; with Crizotinib + Navitoclax (first compound 0.01 µM), 0.95; with Crizotinib + Navitoclax (first compound 0.03162 µM), 1.03. In addition, the relative viability with Crizotinib + Navitoclax (first compound 0.1 µM) was found to be 1; in the assay with Crizotinib + Navitoclax (first compound 1 µM), 1.02; in the assay with Crizotinib + Foretinib (first compound 0.01 µM), 0.943; with Crizotinib + Foretinib (first compound 0.03162 µM), 1.04; with Crizotinib + Foretinib (first compound 0.1 µM), 1.04; with Crizotinib + Foretinib (first compound 1 µM), 1.04.
